In ChEMBL document CHEMBL1201862, “PubChem BioAssay data set” (2004):
One block for each compound: values may come before it. Activity calls are given as the source filed them.

Legend:
Phosphomannomutase 2 = Phosphomannomutase 2 (Homo sapiens, UniProt O15305); assay: Counter screen SAR assay for PMM2 inhibitors via a fluorescence intensity assay. [Related pubchem assays (depositor defined):AID1545, AID1574]
[1] = biological target: T1, Mannose-6-phosphate isomerase (Homo sapiens, UniProt P34949); assay: phosphomannose isomerase inhibition – biochemical, fluorescence intensity, confirmation (AID 1535)
T1 sequence (P34949 whole entry): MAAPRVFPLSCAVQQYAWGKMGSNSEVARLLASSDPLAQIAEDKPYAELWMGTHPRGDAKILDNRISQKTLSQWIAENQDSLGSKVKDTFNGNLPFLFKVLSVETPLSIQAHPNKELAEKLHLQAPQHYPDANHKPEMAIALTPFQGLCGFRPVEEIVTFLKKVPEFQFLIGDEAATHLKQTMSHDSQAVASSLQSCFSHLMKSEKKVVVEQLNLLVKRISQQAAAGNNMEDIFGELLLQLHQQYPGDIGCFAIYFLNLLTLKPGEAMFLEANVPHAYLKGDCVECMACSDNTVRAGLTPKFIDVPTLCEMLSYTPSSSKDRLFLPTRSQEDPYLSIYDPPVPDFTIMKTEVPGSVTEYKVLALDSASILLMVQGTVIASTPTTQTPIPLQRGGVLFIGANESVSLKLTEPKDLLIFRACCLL

[2] = HEK-293T viability loss after treatment – luminescence, T-cell screen hits, cytotoxicity control for TCR NF-kB inhibitor project, dose response (AID 489026); assay type: functional, cell-based;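 also: cells exposed to compound about 14 hours before the viability readout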
[3] = MIN6 cell viability loss – mouse insulinoma, cytotoxicity control, dose response (AID 2122); assay type: functional;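 also: confirmatory high-throughput counterscreen run to flag cytotoxic compounds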
[4] = decrease of insulin promoter-GFP reporter – imaging, high-content screening, mouse beta cells (AID 1628); assay type: functional; conditions: MIN6
[5] = NIH-3T3 fibroblast cytotoxicity, dose response, cytotoxicity control, cell-based, fluorescence, Alamar Blue, secondary assay (AID 2327); assay type: functional;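 also: NIH-3T3 mouse fibroblasts cultured with fluconazole at 8 µg/mL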
[6] = fluconazole-exposed Candida albicans growth modulators – fluorescence, retest, confirmation (AID 2467); assay type: functional, cell-based
[7] = Luminescence Cell-Based Dose Retest to Confirm Inhibitors of Cancer Stem Cells. [Related pubchem assays (depositor defined):AID2717, AID2721]; assay type: functional; conditions: Homo sapiens
[8] = biological target: Microphthalmia-associated transcription factor (Homo sapiens, UniProt O75030); assay: reducers of TRPM1 reporter luminescence, concentration series – cell-based, SK-MEL-5, cherry-picked, set 3, MITF inhibitor project, dose response (AID 493073); assay type: functional;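 also: SK-MEL-5 melanoma cells with luciferase driven by the MITF target TRPM1 promoter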
A-375 = assay: proliferation inhibition in MITF-low A375 cells – cell-based, cherry-pick samples, set 2, counter-screen for MITF modulator project, dose response (AID 540335); assay type: functional; conditions: Homo sapiens
INS1 = assay: INS-1E survival protection against cytokine death – cell-based, luminescence, retest, dose response (AID 449756); assay type: functional; conditions: Rattus norvegicus;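 also: cell death triggered by IL-1 beta plus TNF-alpha plus IFN-gamma mixture; protective hits raise ATP signal compared with cytokine alone wells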
[9] = biological target: Intestinal-type alkaline phosphatase (Mus musculus, UniProt P24822); assay: mouse intestinal alkaline phosphatase activators, dose response, biochemical, luminescence, uHTS hits (AID 488783); assay type: functional
[10] = biological target: T2, Alkaline phosphatase, tissue-nonspecific isozyme (Homo sapiens, UniProt P05186); assay: activation of tissue-nonspecific alkaline phosphatase – biochemical, TNAP isozyme, mouse IAP uHTS hits, selectivity assay for mouse IAP activator project, dose response (AID 488880); assay type: functional
T2 sequence (P05186 whole entry): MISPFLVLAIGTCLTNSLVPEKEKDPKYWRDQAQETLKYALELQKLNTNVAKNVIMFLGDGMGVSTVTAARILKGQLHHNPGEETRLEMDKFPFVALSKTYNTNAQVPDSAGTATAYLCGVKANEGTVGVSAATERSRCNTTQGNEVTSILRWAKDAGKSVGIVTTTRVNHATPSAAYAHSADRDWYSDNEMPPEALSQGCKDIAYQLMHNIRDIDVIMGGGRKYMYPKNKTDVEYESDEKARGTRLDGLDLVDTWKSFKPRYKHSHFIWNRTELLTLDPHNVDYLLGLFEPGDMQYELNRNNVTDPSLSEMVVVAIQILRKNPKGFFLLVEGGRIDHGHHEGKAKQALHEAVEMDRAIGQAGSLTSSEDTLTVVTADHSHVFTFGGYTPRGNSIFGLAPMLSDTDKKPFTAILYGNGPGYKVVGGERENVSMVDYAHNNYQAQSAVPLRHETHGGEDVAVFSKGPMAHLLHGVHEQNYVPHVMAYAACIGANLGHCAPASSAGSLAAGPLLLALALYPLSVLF

[11] = biological target: Intestinal-type alkaline phosphatase (Homo sapiens, UniProt P09923); assay: activation of human intestinal alkaline phosphatase – biochemical, dose response (AID 488873); assay type: functional
HEK293 [12] = assay: cells; conditions: Homo sapiens
HEK293 [13] = assay: cells; conditions: Homo sapiens; remark: listed apart in the source

Sequence of Phosphomannomutase 2 (O15305 whole entry): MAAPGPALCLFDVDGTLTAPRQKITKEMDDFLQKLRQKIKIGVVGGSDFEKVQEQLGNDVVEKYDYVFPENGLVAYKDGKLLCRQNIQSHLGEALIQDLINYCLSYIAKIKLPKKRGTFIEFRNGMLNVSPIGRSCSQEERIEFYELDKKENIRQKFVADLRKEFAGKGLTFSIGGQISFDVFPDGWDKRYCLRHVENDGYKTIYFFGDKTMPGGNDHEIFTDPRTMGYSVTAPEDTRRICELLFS
Sequence of Intestinal-type alkaline phosphatase (Mus musculus, UniProt P24822) (P24822 whole entry): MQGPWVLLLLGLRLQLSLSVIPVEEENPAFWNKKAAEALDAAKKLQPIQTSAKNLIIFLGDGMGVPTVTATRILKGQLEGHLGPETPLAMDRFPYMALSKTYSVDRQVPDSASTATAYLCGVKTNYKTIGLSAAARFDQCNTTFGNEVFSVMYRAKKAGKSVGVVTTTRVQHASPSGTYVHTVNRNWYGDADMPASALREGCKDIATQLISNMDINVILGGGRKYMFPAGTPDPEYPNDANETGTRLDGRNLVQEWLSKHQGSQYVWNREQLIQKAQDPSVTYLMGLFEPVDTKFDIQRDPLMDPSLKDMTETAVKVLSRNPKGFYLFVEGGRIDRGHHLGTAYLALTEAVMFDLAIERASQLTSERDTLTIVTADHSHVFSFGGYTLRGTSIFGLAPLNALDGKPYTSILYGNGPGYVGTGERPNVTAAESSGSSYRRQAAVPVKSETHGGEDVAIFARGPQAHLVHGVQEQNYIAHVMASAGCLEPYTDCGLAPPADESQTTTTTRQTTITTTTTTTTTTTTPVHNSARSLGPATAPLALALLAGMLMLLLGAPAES
Sequence of Microphthalmia-associated transcription factor (O75030 whole entry): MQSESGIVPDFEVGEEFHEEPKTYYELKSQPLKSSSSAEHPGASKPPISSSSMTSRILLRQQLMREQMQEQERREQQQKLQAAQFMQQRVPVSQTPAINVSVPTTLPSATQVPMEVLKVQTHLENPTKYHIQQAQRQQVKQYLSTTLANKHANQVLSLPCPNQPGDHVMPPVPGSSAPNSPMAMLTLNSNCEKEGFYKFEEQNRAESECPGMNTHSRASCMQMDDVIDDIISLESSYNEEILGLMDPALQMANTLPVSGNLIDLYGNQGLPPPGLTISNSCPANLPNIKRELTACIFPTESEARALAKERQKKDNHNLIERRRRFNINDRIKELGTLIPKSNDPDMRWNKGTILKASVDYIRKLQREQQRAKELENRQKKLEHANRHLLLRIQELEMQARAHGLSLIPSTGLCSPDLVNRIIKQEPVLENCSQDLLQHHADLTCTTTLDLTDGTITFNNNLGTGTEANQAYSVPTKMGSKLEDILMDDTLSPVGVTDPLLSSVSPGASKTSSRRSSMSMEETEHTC
Sequence of Intestinal-type alkaline phosphatase (Homo sapiens, UniProt P09923) (P09923 whole entry): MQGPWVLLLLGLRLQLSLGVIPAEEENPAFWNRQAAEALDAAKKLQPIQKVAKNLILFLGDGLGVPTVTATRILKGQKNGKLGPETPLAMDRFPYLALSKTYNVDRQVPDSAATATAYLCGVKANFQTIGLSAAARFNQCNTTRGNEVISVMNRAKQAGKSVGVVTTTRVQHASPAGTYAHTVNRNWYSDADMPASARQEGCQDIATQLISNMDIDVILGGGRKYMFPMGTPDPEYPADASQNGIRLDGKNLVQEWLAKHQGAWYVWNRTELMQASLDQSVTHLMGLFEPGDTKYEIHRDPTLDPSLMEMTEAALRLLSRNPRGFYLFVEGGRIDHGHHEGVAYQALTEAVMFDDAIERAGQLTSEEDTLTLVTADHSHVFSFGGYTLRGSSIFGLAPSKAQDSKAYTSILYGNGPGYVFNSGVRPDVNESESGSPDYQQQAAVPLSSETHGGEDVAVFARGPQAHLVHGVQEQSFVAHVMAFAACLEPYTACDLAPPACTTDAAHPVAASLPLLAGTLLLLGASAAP

IC50 (Phosphomannomutase 2): > 100 µM (inactive)
IC50 [1]: 20.8 µM (active)
Compound: FC(F)(F)c1nnc(/N=c2\ssnc2Cl)s1

Compound: COc1ccc(Br)cc1/C(C)=N/NC1=NCCN1
IC50 [2]: > 80 µM (inactive)
IC50 [3]: 3.47 µM (active)
IC50 [4]: 4.74 µM (active)

Compound: Cc1ccc(C(C)C)c(OCc2n[n+](CC(=O)c3ccc(OC(F)F)cc3)c3n2CCCCC3)c1
EC50 [5]: > 150 µM (inactive)
EC50 [6]: 0.74 µM (active)
AC50 [7]: 5.68 µM (active)
AC50 [8]: 9.17 µM (active)
AC50 (A-375): 20.1 µM (active)
IC50 [3]: 1.13 µM (active)
AC50 (INS1): 3.09 µM (active)
IC50 [4]: 1.27 µM (active)

EC50 [9]: 24.7 µM (active)
EC50 [10]: 42.4 µM (active)
EC50 [11]: 22.5 µM (active)
Compound: Cc1cc(C)c(S(=O)(=O)Nc2ccc(O)c(Sc3nnc[nH]3)c2)cc1C

Compound: NC(Cc1ccc(C(F)(F)F)cc1)c1csc(NC(=O)Nc2ccccc2Oc2ccccc2)n1 (stereo not drawn)
EC50 (HEK293 [12]): > 59.6 µM (inactive)
EC50 (HEK293 [13]): > 59.6 µM (inactive)
